Measurements taken from ChEMBL document CHEMBL3124799, “Discovery of 1,3,4-oxidiazole scaffold compounds as inhibitors of superoxide dismutase expression” (Bioorg Med Chem Lett, 2014).
Activity calls are given as the source filed them. The rule behind the calls is not given here.

Experiments:
Fibroblast [1] = assay: Relative expression of human SOD1 expressed in mouse fibroblasts at 10 uM after 48 hrs by ELISA
Fibroblast [2] = assay: Inhibition of human SOD1 expressed in mouse fibroblasts after 48 hrs by ELISA relative to control; type: functional, cell-based
Fibroblast [3] = assay: Inhibition of human SOD1 expressed in mouse fibroblasts at 10 uM after 48 hrs by ELISA relative to control; type: functional
[4] = Drug uptake in spinal cord of nontransgenic mouse at 10 mg/kg, ip after 24 hrs
[5] = Drug uptake in spinal cord of mouse expressing SOD1 G93A mutant at 10 mg/kg, ip after 2 hrs; type: ADME, organism-based; design: dose 10 mg/kg, route intraperitoneal; details: read-out: Drug uptake
Brain = assay: Drug uptake in brain of nontransgenic mouse at 10 mg/kg, ip after 24 hrs; details: in vivo
[6] = Drug uptake in brain of mouse expressing SOD1 G93A mutant at 10 mg/kg, ip after 2 hrs; type: ADME, organism-based; design: dose 10 mg/kg, route intraperitoneal; details: read-out: Drug uptake
[7] = Drug uptake in serum of mouse expressing SOD1 G93A mutant at 10 mg/kg, ip after 4 hrs; type: ADME, organism-based; design: dose 10 mg/kg, route intraperitoneal; details: read-out: Drug uptake
[8] = Drug uptake in serum of nontransgenic mouse at 10 mg/kg, ip after 24 hrs
[9] = Drug uptake in brain of nontransgenic mouse at 10 mg/kg, ip after 4 hrs
[10] = Drug uptake in serum of mouse expressing SOD1 G93A mutant at 10 mg/kg, ip after 2 hrs; type: ADME, organism-based; design: dose 10 mg/kg, route intraperitoneal; details: read-out: Drug uptake
[11] = Drug uptake in spinal cord of nontransgenic mouse at 10 mg/kg, ip after 4 hrs
[12] = Drug uptake in serum of mouse expressing SOD1 G93A mutant at 20 mg/kg, ip after 24 hrs; type: ADME, organism-based; design: dose 20 mg/kg, route intraperitoneal; details: read-out: Drug uptake
Mus musculus [13] = assay: Reduction in SOD1 G93A mutant expression in cerebral cortex of mouse at 20 mg/kg, ip administered every alternate day for 26 days; type: functional, organism-based; design: dose 20 mg/kg
[14] = Drug uptake in serum of mouse expressing SOD1 G93A mutant at 20 mg/kg, ip after 1 hr; type: ADME, organism-based; design: dose 20 mg/kg, route intraperitoneal; details: read-out: Drug uptake
Mus musculus [15] = assay: Reduction in SOD1 G93A mutant expression in brain stem of mouse at 20 mg/kg, ip administered every alternate day for 26 days; type: functional, organism-based; design: dose 20 mg/kg
Mus musculus [16] = assay: Reduction in SOD1 G93A mutant expression in spinal cord of mouse assessed as at 20 mg/kg, ip administered every alternate day for 26 days; type: functional, organism-based; design: dose 20 mg/kg
[17] = Drug uptake in spinal cord of mouse expressing SOD1 G93A mutant at 20 mg/kg, ip after 24 hrs; type: ADME, organism-based; design: dose 20 mg/kg, route intraperitoneal; details: read-out: Drug uptake
[18] = Drug uptake in brain of mouse expressing SOD1 G93A mutant at 20 mg/kg, ip after 1 hr; type: ADME, organism-based; design: dose 20 mg/kg, route intraperitoneal; details: read-out: Drug uptake
[19] = Drug uptake in spinal cord of mouse expressing SOD1 G93A mutant at 20 mg/kg, ip after 1 hr; type: ADME, organism-based; design: dose 20 mg/kg, route intraperitoneal; details: read-out: Drug uptake
[20] = Drug uptake in brain of mouse expressing SOD1 G93A mutant at 20 mg/kg, ip after 24 hrs; type: ADME, organism-based; design: dose 20 mg/kg, route intraperitoneal; details: read-out: Drug uptake
Mus musculus [21] = assay: Reduction in SOD1 G93A mutant expression in cerebellum of mouse at 20 mg/kg, ip administered every alternate day for 26 days; type: functional, organism-based; design: dose 20 mg/kg
[22] = Mus musculus, Fibroblast, 48 h, read-out: IC50

In the case of `Fc1ccc(CSc2nnc(-c3ccncc3)o2)cc1`, the relative SOD1 expression at 10 µM (Fibroblast [1]) is reported as 86%.

Work on `Brc1ccc(CSc2nnc(-c3ccncc3)o2)cc1` yielded a relative SOD1 expression at 10 µM (Fibroblast [1]) of 103%.

Molecule `Clc1ccc(CSc2nnc(-c3ccncc3)o2)cc1` has a relative SOD1 expression at 10 µM (Fibroblast [1]) of 123%.

`Brc1cccc(CSc2nnc(-c3ccncc3)o2)c1` gave a relative SOD1 expression at 10 µM (Fibroblast [1]) of 91%.

Molecule `O=[N+]([O-])c1ccc(CSc2nnc(-c3ccncc3)o2)cc1` has a relative SOD1 expression at 10 µM (Fibroblast [1]) of 102%.

`O=C(CCl)c1cc(Br)c(Br)s1` showed an IC50 (Fibroblast [2]; [22]) of 0.65 µM.

Work on `O=[N+]([O-])c1cccc(CSc2nnc(-c3ccncc3)o2)c1` yielded a relative SOD1 expression at 10 µM (Fibroblast [1]) of 117%.

Molecule `Ic1ccc(CSc2nnc(-c3ccncc3)o2)cc1` has a relative SOD1 expression at 10 µM (Fibroblast [1]) of 69%.

With `CCCCc1c(-c2ccc(O)cc2)[nH]c2nccnc12` [ALOISINE A] the IC50 (Fibroblast [2]; fibroblast) was “Not Active”.

For `c1cc(CSc2nnc(-c3ccncc3)o2)ccn1`, the inhibition (Fibroblast [3]) was “inactive”.

`Brc1ccc(CSc2nnc(-c3cccnc3)o2)cc1` showed a relative SOD1 expression at 10 µM (Fibroblast [1]) of 68.6%.

With `FC(F)(F)c1ccc(CSc2nnc(-c3ccncc3)o2)cc1` the relative SOD1 expression at 10 µM (Fibroblast [1]) was 157%.

For `c1cncc(CSc2nnc(-c3ccncc3)o2)c1`, the inhibition (Fibroblast [3]) was “inactive”.

Work on `O=C1Cc2c([nH]c3ccc(Br)cc23)-c2ccccc2N1` [KENPAULLONE] yielded an IC50 (Fibroblast [2]; [22]) of 10 µM.

`Cc1ccc(CSc2nnc(-c3ccncc3)o2)cc1` showed a relative SOD1 expression at 10 µM (Fibroblast [1]) of 126%.

For `COc1cccc(CSc2nnc(-c3ccncc3)o2)c1`, the relative SOD1 expression at 10 µM (Fibroblast [1]) was 50% and the inhibition (Fibroblast [2]) was “Dose-dependent effect”.

`c1ccc(CSc2nnc(-c3ccncc3)o2)cc1` showed a relative SOD1 expression at 10 µM (Fibroblast [1]) of 133%.

In the case of `COc1ccc(CSc2nnc(-c3ccncc3)o2)cc1`, the concentration at 24 h [4] is reported as 113 nM, the concentration at 2 h [5] is reported as 57 nM and the Drug uptake (Brain) is reported as “Not Active”. The concentration at 2 h [6] was 29 nM, the concentration at 4 h [7] was 334 nM and the concentration at 24 h [8] was 123 nM. For the same molecule, the relative SOD1 expression at 10 µM (Fibroblast [1]) was 47%, the concentration at 4 h [9] was 47 nM and the concentration at 2 h [10] was 153 nM. The inhibition (Fibroblast [2]) was “Dose-dependent effect” and the concentration at 4 h [11] was 162 nM.

Work on `Cn1cc(C2=C(c3ccc(Cl)cc3Cl)C(=O)NC2=O)c2ccccc21` [SB-216763] yielded an IC50 (Fibroblast [2]; [22]) of 3 µM.

In the case of `Ic1cccc(CSc2nnc(-c3ccncc3)o2)c1`, the concentration at 24 h [12] is reported as 73 nM, the inhibition (Mus musculus [13]) is reported as “Active” and the concentration at 1 h [14] is reported as 672 nM. For the same molecule, the inhibition (Mus musculus [15]) was “Active”, the inhibition (Mus musculus [16]) was “Active” and the concentration at 24 h [17] was 855 nM. For the same molecule, the concentration at 1 h [18] was 944 nM, the inhibition (Fibroblast [2]) was “Dose-dependent effect” and the IC50 (Fibroblast [2]; [22]) was 0.625 µM. For the same molecule, the concentration at 1 h [19] was 4000 nM, the concentration at 24 h [20] was 77 nM and the inhibition (Mus musculus [21]) was “Active”.

Work on `O=C1NC(=O)C(c2cn(CCCO)c3ncccc23)=C1c1cnccn1` yielded an IC50 (Fibroblast [2]; [22]) of 10 µM.

In the case of `Clc1cccc(CSc2nnc(-c3ccncc3)o2)c1`, the relative SOD1 expression at 10 µM (Fibroblast [1]) is reported as 96%.
